These results are taken from ChEMBL document CHEMBL1811778, “The discovery and development of inhibitors of fatty acid amide hydrolase (FAAH)” (Bioorg Med Chem Lett, 2011).

In test [1] the target is T1, Fatty-acid amide hydrolase 1 (Homo sapiens, UniProt O00519).
T1 sequence (O00519 whole entry): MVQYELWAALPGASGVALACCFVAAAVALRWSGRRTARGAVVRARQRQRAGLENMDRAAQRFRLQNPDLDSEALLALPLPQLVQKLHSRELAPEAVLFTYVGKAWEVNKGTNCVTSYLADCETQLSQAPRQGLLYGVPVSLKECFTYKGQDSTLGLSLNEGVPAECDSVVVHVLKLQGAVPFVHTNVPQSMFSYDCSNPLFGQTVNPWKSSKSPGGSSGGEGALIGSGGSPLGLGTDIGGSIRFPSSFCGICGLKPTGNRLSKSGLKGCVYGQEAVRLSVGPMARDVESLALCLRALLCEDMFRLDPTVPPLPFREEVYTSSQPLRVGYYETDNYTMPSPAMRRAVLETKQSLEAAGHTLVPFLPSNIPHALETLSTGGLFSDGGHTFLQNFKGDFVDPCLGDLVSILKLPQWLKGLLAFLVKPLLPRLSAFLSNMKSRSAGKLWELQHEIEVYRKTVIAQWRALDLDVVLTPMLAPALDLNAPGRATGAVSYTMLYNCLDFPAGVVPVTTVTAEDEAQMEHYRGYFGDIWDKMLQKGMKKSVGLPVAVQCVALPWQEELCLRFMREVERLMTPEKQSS
In words: Reversible inhibition of human FAAH.

Test [2] concerns the target T1, Fatty-acid amide hydrolase 1. Nature of the test: Inhibition of FAAH.
The target in test [3] is T2, Fatty-acid amide hydrolase 1 (Rattus norvegicus, UniProt P97612).
T2 sequence (P97612 whole entry): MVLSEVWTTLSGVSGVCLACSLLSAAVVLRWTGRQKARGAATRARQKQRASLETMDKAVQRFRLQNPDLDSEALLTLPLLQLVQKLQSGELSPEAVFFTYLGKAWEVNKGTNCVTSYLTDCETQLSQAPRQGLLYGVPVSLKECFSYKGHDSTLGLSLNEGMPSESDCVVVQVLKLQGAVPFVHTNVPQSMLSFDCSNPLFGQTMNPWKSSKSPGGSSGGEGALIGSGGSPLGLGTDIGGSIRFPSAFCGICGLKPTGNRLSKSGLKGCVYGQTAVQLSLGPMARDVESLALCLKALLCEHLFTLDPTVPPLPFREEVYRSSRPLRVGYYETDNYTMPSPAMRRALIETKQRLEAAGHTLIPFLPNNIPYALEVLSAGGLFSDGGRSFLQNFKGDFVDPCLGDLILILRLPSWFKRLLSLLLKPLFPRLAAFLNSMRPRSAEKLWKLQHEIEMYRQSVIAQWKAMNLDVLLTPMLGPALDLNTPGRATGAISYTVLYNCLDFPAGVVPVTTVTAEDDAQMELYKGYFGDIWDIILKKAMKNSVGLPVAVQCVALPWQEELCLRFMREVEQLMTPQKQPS
In words: Inhibition of rat FAAH assessed as conversion [14]C-oleamide to oleic acid.

The subject of the next test is Rattus norvegicus. In words: In vivo inhibition of rat FAAH at 0.3 mg/kg, ip after 16 hrs. Format: functional. The note with it: route intraperitoneal.

`CCn1c(=O)n(C2CCCN(c3nccc(-c4cc5ccccc5o4)n3)C2)c2ccccc21` (configuration not stated) showed an IC50 in test [1] of 10 nM.

For the compound `O=C(CCCCCCc1ccccc1)c1ncc(-c2cnccn2)o1`, in test [2], affinity was put at a Ki of 5.3 nM.

With `CCCCCCCC/C=C\CCCCCCC=O`, the Ki in test [2] came to 40 nM.

`CCCCCCCC/C=C\CCCCCCC(=O)C(N)=O` yielded a Ki in test [2] of 16 nM.

As for `CCCCCCCC/C=C\CCCCCCC(=O)C(=O)OCC`, affinity in test [2] was put at a Ki of 1.4 nM.

In turn, `CCCCCCCC/C=C\CCCCCCC(=O)C(F)(F)F` gave a Ki in test [2] of 2 nM.

`CCCCCCCC/C=C\CCCCCCCC(=O)c1nccn1C`: in test [3], the Ki is more than 100000 nM.

With `CCCCCCCC/C=C\CCCCCCCC(=O)C1=NCCO1`, in test [3], the Ki came out at 4500 nM.

With `CCCCCCCC/C=C\CCCCCCCC(=O)c1nc2cnccc2o1`, the Ki in test [3] was 7.2 nM.

As for `CCCCCCCC/C=C\CCCCCCCC(=O)c1nc2cccnc2o1`, the Ki in test [3] was determined as 11 nM.

Consider `CCCCCCCCCCCCCCCCCC(=O)c1nc2ncccc2o1`, for which the Ki in test [2] is 11 nM.

In turn, `CCCCCCCCCCCCCCCC(=O)c1nc2ncccc2o1` gave a Ki in test [2] of 1.9 nM.

The compound `CCCCCCCCCCCCCC(=O)c1nc2ncccc2o1` had a Ki in test [2] of 1.7 nM.

In turn, `CCCCCCCCCC(=O)c1nc2ncccc2o1` had a Ki in test [2] of 0.75 nM.

`CCCCCCC(=O)c1nc2ncccc2o1`: affinity in test [2] was put at a Ki of 2.1 nM.

In turn, `CCCCCC(=O)c1nc2ncccc2o1` displayed a Ki in test [2] of 15 nM.

For the compound `CC(=O)c1nc2ncccc2o1`, the Ki in test [2] is more than 100000 nM.

Regarding `O=C(CCCCCCc1ccccc1)c1ncc(-c2cscn2)o1`, the Ki in test [2] was found to be 5.8 nM.

Regarding `CCN(CC)S(=O)(=O)N1CCc2c(ccnc2Nc2cnc3ccccc3c2)C1`, in test [1], the IC50 was less than 100 nM.

With `CCn1ccc2cc(-c3ccc4oc(N5Cc6ccccc6C5)nc4c3)ccc21`, in test [1], the IC50 is 1.3 nM.

In test [2], `O=C(N1CCN(c2cccc(C(F)(F)F)c2)CC1)n1nnc2ccc(-c3ccc(Cl)cc3)nc21` gave an IC50 of 2 nM.

`CN(CCCCCl)C(=O)n1cnc(-c2ccccc2)c1` gave an IC50 in test [2] of 78 nM.

The compound `COc1ccc(N2CCN(C(=O)n3nnc4ccc(N5CCCC5)nc43)CC2)cc1` had an IC50 in test [2] of 1 nM.

`O=C(N1CCC(Oc2ccc(OCc3cccc(F)c3)cc2)CC1)n1ccnc1`: the IC50 in test [2] is 0.093 nM.

In test [2], `O=C(CCCCCCc1ccccc1)c1ncc(-c2cocn2)o1` came in with a Ki of 4.6 nM.

On to `CCCCCCCC(=O)c1nc2ncccc2o1`, for which the Ki in test [2] is 0.69 nM.

Compound `CCCCCCCCCCCC(=O)c1nc2ncccc2o1` displayed a Ki in test [2] of 0.57 nM.

Turning to `O=C(CCCCCCc1ccccc1)c1ncc(-c2cccnn2)o1`, the affinity in test [2] corresponds to a Ki of 5.6 nM.

`O=C(CCCCCCc1ccccc1)c1ncc(-c2ncccn2)o1` came in with a Ki in test [2] of 4.6 nM.

In test [2], `CCCCC(=O)c1nc2ncccc2o1` showed a Ki of 50 nM.

For `Cc1ccc2nc(-c3ccc(NC(=O)C4CCN(S(=O)(=O)c5cccs5)CC4)cc3)sc2c1`, in test [2], the IC50 came out at 18 nM.

In the case of `NC(=O)c1cccc(-c2cccc(OC(=O)NC3CCCCC3)c2)c1` [URB-597], 0.3 mg/kg produced 70% inhibition in vivo in the test with Rattus norvegicus.

The term IC50 denotes the concentration at which inhibition is half-maximal. Read a low IC50 as inhibition by little substance. One may read the Ki as the equilibrium dissociation constant of an inhibitor or competing ligand from its target. Broadly, the inhibition in vivo is the change of the read-out against control, counted positive when it falls. A low value points to little suppression.
